Source: patent US12415785B2, “Compound modulators of sting” (CTXT PTY LTD, priority 2019, dated 2025)
Like-named read-outs stand apart in the source and are kept apart here.

Experiments:
[1] = molecular target: human HAQ isoform of STING (THP-1 STING Lucia ISG cells) (Homo sapiens (Human), UniProt Q86WV6, G230A/H232R/R293Q/R71H); test: THP-1 STING Lucia ISG reporter cell line assay; assay type: cell-based; settings: 24 h incubation, QUANTI-Luc luminescence
How it was run: (§1)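 THP-1 STING Lucia ISG cells (HAQ STING) or THP-1-Dual KI-hSTING-R232 cells (WT STING) treated 24 h at 37 °C with 11-point, 2.5-fold compound dilutions. ISG-driven Lucia luciferase read by luminescence, normalised to untreated wells and 40 μM ML RR-S2 CDA positive control; EC50 derived.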

human STING (HAQ) = human STING (HAQ) (Homo sapiens, UniProt Q86WV6, G230A/H232R/R293Q); test: Differential scanning fluorimetry (DSF), huSTING (HAQ); assay type: binding; settings: read-out: DSF huSTING (HAQ) ΔTm (° C.)
human STING (HAQ), sequence (Q86WV6 whole entry G230A/H232R/R293Q, looked up): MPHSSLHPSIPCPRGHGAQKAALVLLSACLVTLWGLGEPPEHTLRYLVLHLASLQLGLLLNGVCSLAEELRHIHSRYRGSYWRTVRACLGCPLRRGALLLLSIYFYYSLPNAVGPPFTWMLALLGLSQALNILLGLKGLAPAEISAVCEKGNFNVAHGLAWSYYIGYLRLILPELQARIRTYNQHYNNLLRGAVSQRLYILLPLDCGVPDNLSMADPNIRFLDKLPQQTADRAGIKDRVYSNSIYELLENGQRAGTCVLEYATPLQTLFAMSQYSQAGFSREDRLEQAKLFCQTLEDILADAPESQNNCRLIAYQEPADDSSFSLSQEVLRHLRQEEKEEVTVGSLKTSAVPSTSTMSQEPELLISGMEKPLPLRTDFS
How it was run: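 Recombinant His-TEV-tagged human STING allelic variants expressed in E. coli and purified by IMAC. Thermal unfolding followed by dye fluorescence (excitation 490 nm, emission 570 nm) from 20° C. to 100° C. in 0.5° C. steps, in triplicate, with and without ligand; Tm taken from the transition inflection point.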

[2] = molecular target: WT human STING isoform (THP-1-Dual KI-hSTING-R232 cells) (Homo sapiens (Human), UniProt Q86WV6, H232R); test: THP-1-Dual KI-hSTING-R232 reporter cell line assay; assay type: cell-based; settings: 24 h incubation, QUANTI-Luc luminescence
WT human STING isoform (THP-1-Dual KI-hSTING-R232 cells), sequence (Q86WV6 whole entry H232R, canonical isoform): as the sequence (Q86WV6 whole entry G230A/H232R/R293Q, looked up) above, with A230G, Q293R counted along it
How it was run: as §1

[3] = 2 μM protein, compound 100 μM, Tm with ligand minus Tm of protein alone (1% DMSO)

human HAQ isoform of STING (THP-1 STING Lucia ISG cells), sequence (Q86WV6 whole entry R71H/G230A/H232R/R293Q, canonical isoform): as the sequence (Q86WV6 whole entry G230A/H232R/R293Q, looked up) above, with R71H counted along it

Row | Compound | EC50 [1] | ΔTm at 100 µM (human STING (HAQ); [3]) | EC50 [2] | ΔTm at 100 µM (human STING (HAQ))
1 | NC(=O)c1ccc2c(c1)nc(-c1ccccc1C(=O)O)n2CCn1c(-c2ccccc2C(=O)O)nc2cc(C(N)=O)ccc21 [Example 2, 2,2′-(Ethane-1,2-diylbis(5-carbamoyl-1H-benzo[d]imidazole-1,2-diyl))dibenzoic acid] | > 40000 nM | -3.48 °C | > 40000 nM | –
2 | COc1c(C(N)=O)ccc2c1nc(-c1c(F)cc(Cl)cc1-c1nn[nH]n1)n2CCn1c(-c2c(F)cc(Cl)cc2-c2nn[nH]n2)nc2c(OC)c(C(N)=O)ccc21 [Example 46, 1,1′-(Ethane-1,2-diyl)bis(2-(4-chloro-2-fluoro-6-(2H-tetrazol-5-yl)phenyl)-4-methoxy-1H-benzo[d]imidazole-5-carboxamide)] | 218 nM | 28.6 °C | 195 nM | –
3 | COc1c(C(N)=O)ccc2c1nc(-c1c(F)cccc1-c1nn[nH]n1)n2CCn1c(-c2c(F)cccc2-c2nn[nH]n2)nc2c(OC)c(C(N)=O)ccc21 [Example 48, 1,1′-(Ethane-1,2-diyl)bis(2-(2-fluoro-6-(2H-tetrazol-5-yl)phenyl)-4-methoxy-1H-benzo[d]imidazole-5-carboxamide)] | 415 nM | 25.5 °C | 269 nM | –
4 | CCc1ccc(-c2nc3c(OC)c(C(N)=O)ccc3n2CCn2c(-c3ccc(CC)cc3C(=O)O)nc3c(OC)c(C(N)=O)ccc32)c(C(=O)O)c1 [Example 33, 6,6′-(Ethane-1,2-diylbis(5-carbamoyl-4-methoxy-1H-benzo[d]imidazole-1,2-diyl))bis(3-ethylbenzoic acid)] | > 40000 nM | 4.06 °C | > 40000 nM | –
5 | COc1c(C(N)=O)ccc2c1nc(-c1c(F)cc(Cl)cc1C(=O)O)n2CCn1c(-c2c(F)cc(Cl)cc2C(=O)O)nc2c(OC)c(C(N)=O)ccc21 [Example 11, 2,2′-(ethane-1,2-diylbis(5-carbamoyl-4-methoxy-1H-benzo[d]imidazole-1,2-diyl))bis(5-chloro-3-fluorobenzoic acid)] | 830 nM | 22.1 °C | 683 nM | –
6 | COc1c(C(N)=O)ccc2c1nc(-c1cc(F)c(F)cc1C(=O)O)n2CCn1c(-c2cc(F)c(F)cc2C(=O)O)nc2c(OC)c(C(N)=O)ccc21 [Example 15, 6,6′-(Ethane-1,2-diylbis(5-carbamoyl-4-methoxy-1H-benzo[d]imidazole-1,2-diyl))bis(3,4-difluorobenzoic acid)] | 2560 nM | – | 2460 nM | 4.78 °C
7 | COc1c(C(N)=O)ccc2c1nc(-c1c(F)cc(Cl)cc1Br)n2CCn1c(-c2c(F)cc(Cl)cc2Br)nc2c(OC)c(C(N)=O)ccc21 [Example 45, 1,1′-(Ethane-1,2-diyl)bis(2-(2-bromo-4-chloro-6-fluorophenyl)-4-methoxy-1H-benzo[d]imidazole-5-carboxamide)] | 6790 nM | 1.24 °C | 3250 nM | –
8 | COc1c(C(N)=O)ccc2c1nc(-c1ccc(C)cc1C(=O)O)n2CCn1c(-c2ccc(C)cc2C(=O)O)nc2c(OC)c(C(N)=O)ccc21 [Example 25, 6,6′-(Ethane-1,2-diylbis(5-carbamoyl-4-methoxy-1H-benzo[d]imidazole-1,2-diyl))bis(3-methylbenzoic acid)] | 2960 nM | -15.6 °C | 3200 nM | –
9 | COc1c(C(N)=O)ccc2c1nc(-c1ccc(Cl)cc1C(=O)O)n2CCn1c(-c2ccc(Cl)cc2C(=O)O)nc2c(OC)c(C(N)=O)ccc21 [Example 1, 6,6′-(Ethane-1,2-diylbis(5-carbamoyl-4-methoxy-1H-benzo[d]imidazole-1,2-diyl))bis(3-chlorobenzoic acid)] | 1070 nM | 9.44 °C | 895 nM | –
10 | COc1c(C(N)=O)ccc2c1nc(-c1c(F)cc(Cl)cc1-c1n[nH]c(=O)o1)n2CCn1c(-c2c(F)cc(Cl)cc2-c2n[nH]c(=O)o2)nc2c(OC)c(C(N)=O)ccc21 [Example 50, 1,1′-(Ethane-1,2-diyl)bis(2-(4-chloro-2-fluoro-6-(5-oxo-4,5-dihydro-1,3,4-oxadiazol-2-yl)phenyl)-4-methoxy-1H-benzo[d]imidazole-5-carboxamide)] | 174 nM | 26.4 °C | 31.2 nM | –
11 | COc1c(C(N)=O)ccc2c1nc(-c1c(F)cc(F)cc1-c1n[nH]c(=O)o1)n2CCn1c(-c2c(F)cc(F)cc2-c2n[nH]c(=O)o2)nc2c(OC)c(C(N)=O)ccc21 [Example 44, 1,1′-(Ethane-1,2-diyl)bis(2-(2,4-difluoro-6-(5-oxo-4,5-dihydro-1,3,4-oxadiazol-2-yl)phenyl)-4-methoxy-1H-benzo[d]imidazole-5-carboxamide)] | 558 nM | 13.1 °C | 380 nM | –
12 | COc1c(C(N)=O)ccc2c1nc(-c1ccc(Cl)cc1-c1nn[nH]n1)n2CCn1c(-c2ccc(Cl)cc2-c2nn[nH]n2)nc2c(OC)c(C(N)=O)ccc21 [Example 9, 1,1′-(Ethane-1,2-diyl)bis(2-(4-chloro-2-(2H-tetrazol-5-yl)phenyl)-4-methoxy-1H-benzo[d]imidazole-5-carboxamide)] | 777 nM | 11.3 °C | 715 nM | –
